Test results reported in ChEMBL document CHEMBL1201862, “PubChem BioAssay data set” (2004).
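All cell lines were grown in 96-well plates and treated with compound for 48 hours. GI50 = concentration required for 50% inhibition of growth.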 Activity calls are given as the source filed them. Rule as the data show it: active = GI50 up to about 1.1 µM and inactive = higher. Where a SMILES comes first, the peptide text is derived from it. [ ]: non-standard residue; d: D form. The star is where a group is joined. ξ: configuration not given here. NMeF = CN[C@@H](Cc1ccccc1)C(=O)O; NMeV = CN[C@H](C(=O)O)C(C)C; ξNMeN = CNC(CC(N)=O)C(=O)O; NMeA = CN[C@@H](C)C(=O)O; ξNMeV = CNC(C(=O)O)C(C)C; Boc = CC(C)(C)OC(=O)*

What was measured:
Test in all cases: NCI-60 cell line screen, 48 h
786-0 = tested on: 786-0
ACHN = tested on: ACHN
COLO 205 = tested on: COLO 205
EKVX = tested on: EKVX
HCT-15 = tested on: HCT-15
HL-60 = tested on: HL-60
HT-29 = tested on: HT-29
IGROV-1 = tested on: IGROV-1
NCI-H226 = tested on: NCI-H226
NCI-H522 = tested on: NCI-H522
OVCAR-3 = tested on: OVCAR-3
OVCAR-8 = tested on: OVCAR-8
PC-3 = tested on: PC-3
RPMI-8226 = tested on: RPMI-8226
SF-268 = tested on: SF-268
SK-MEL-28 = tested on: SK-MEL-28
SK-OV-3 = tested on: SK-OV-3
SR = tested on: SR
SW-620 = tested on: SW-620
TK-10 = tested on: TK-10

Row | Structure (SMILES) | GI50 (786-0) | GI50 (ACHN) | GI50 (COLO 205) | GI50 (EKVX) | GI50 (HCT-15) | GI50 (HL-60) | GI50 (HT-29) | GI50 (IGROV-1) | GI50 (NCI-H226) | GI50 (NCI-H522) | GI50 (OVCAR-3) | GI50 (OVCAR-8) | GI50 (PC-3) | GI50 (RPMI-8226) | GI50 (SF-268) | GI50 (SK-MEL-28) | GI50 (SK-OV-3) | GI50 (SR) | GI50 (SW-620) | GI50 (TK-10)
1 | COC(=O)[C@H](C)N(C)C(=O)C(CC(N)=O)N(C)C(=O)[C@H](Cc1ccccc1)N(C)C(=O)[C@@H]1CCCN1C(=O)[C@H](C(C)C)N(C)C(=O)C(C(C)C)N(C)C(=O)[C@@H](NC(=O)OC(C)(C)C)C(C)C (stereo not given in full) (Boc-V[ξNMeV][NMeV]P[NMeF][ξNMeN][NMeA]-OMe) | > 50 µM (inactive) | > 50 µM (inactive) | > 50 µM (inactive) | > 50 µM (inactive) | > 75 µM | 12.1 µM (inactive) | > 50 µM (inactive) | > 50 µM (inactive) | > 50 µM (inactive) | > 50 µM (inactive) | > 50 µM (inactive) | 48.6 µM (inactive) | > 50 µM (inactive) | > 5 µM (inactive) | 41.7 µM (inactive) | > 50 µM (inactive) | > 50 µM (inactive) | 21.3 µM (inactive) | > 50 µM (inactive) | > 50 µM (inactive)
2 | CCCNC(=O)CCC(C)C1CCC2C3C(C[C@H](OC(C)=O)[C@]12C)[C@@]1(C)CCC2(C[C@H]1C[C@H]3OC(C)=O)OOC1(CC[C@]3(C)C4C[C@H](OC(C)=O)[C@]5(C)C(C(C)CCC(=O)NCCC)CCC5C4[C@H](OC(C)=O)C[C@@H]3C1)OO2 (stereo not given in full) | > 100 µM (inactive) | 4.37 µM (inactive) | > 100 µM (inactive) | 57 µM (inactive) | > 100 µM | > 100 µM (inactive) | > 100 µM (inactive) | 20.2 µM (inactive) | 20.8 µM (inactive) | > 100 µM (inactive) | > 100 µM (inactive) | 23.8 µM (inactive) | > 100 µM (inactive) | > 100 µM (inactive) | 32.1 µM (inactive) | > 100 µM (inactive) | 55.5 µM (inactive) | > 100 µM (inactive) | > 100 µM (inactive) | > 100 µM (inactive)
3 | NC(=S)N1N=C(c2ccc3c(c2)CCC3)CC1c1ccccc1 (stereo not given) | 22.6 µM (inactive) | 27.9 µM (inactive) | 18.3 µM (inactive) | 5.08 µM (inactive) | 13.8 µM | 7.93 µM (inactive) | 16.4 µM (inactive) | 15 µM (inactive) | 34.2 µM (inactive) | 6.27 µM (inactive) | 17.4 µM (inactive) | 28.3 µM (inactive) | 19.6 µM (inactive) | 13.6 µM (inactive) | 30.8 µM (inactive) | 41.5 µM (inactive) | 28.6 µM (inactive) | 25.3 µM (inactive) | 33.8 µM (inactive) | 18.1 µM (inactive)
4 | CC(C)c1ccc2c(c1)CCC1C(C)(CN)CCCC21C (stereo not given) | 1.56 µM (inactive) | 1.74 µM (inactive) | 0.575 µM (active) | 1.86 µM (inactive) | 1.54 µM | 1.31 µM (inactive) | 0.914 µM (active) | 1.71 µM (inactive) | 1.91 µM (inactive) | 1.79 µM (inactive) | 1.7 µM (inactive) | 1.73 µM (inactive) | 1.59 µM (inactive) | 0.653 µM (active) | 1.65 µM (inactive) | 1.73 µM (inactive) | 2.11 µM (inactive) | 1.1 µM (active) | 1.29 µM (inactive) | 1.7 µM (inactive)
